Source: patent publication US20120322819A1, “COMPOUND CONTAINING A NOVEL 4-ALKOXYPYRIMIDINE STRUCTURE AND MEDICINE CONTAINING SAME” (KOWA COMPANY, LTD., priority 2010, published 2012)

Tests used:
human PPARγ2 = target: T1, human PPARγ2 (Homo sapiens, UniProt P37231); assay: PPARγ activation activity, Gal4-PPARγ2 LBD chimera luciferase transfection assay in COST cells; assay type: cell-based; conditions: Gal4 (aa 1-147)/human PPARγ2 LBD (aa 182-505) chimera, luciferase reporter, 16 hours, rosiglitazone (3 to 10 μmol/L) = 100%, read-out: EC50 (50% effective concentration, PPARγ activation)
T1 construct: the amino acids 182 to 505 of human PPARγ2; expressed in transfected cells; host or cells: COST cells (so in the source)
T1 sequence (P37231 182-505): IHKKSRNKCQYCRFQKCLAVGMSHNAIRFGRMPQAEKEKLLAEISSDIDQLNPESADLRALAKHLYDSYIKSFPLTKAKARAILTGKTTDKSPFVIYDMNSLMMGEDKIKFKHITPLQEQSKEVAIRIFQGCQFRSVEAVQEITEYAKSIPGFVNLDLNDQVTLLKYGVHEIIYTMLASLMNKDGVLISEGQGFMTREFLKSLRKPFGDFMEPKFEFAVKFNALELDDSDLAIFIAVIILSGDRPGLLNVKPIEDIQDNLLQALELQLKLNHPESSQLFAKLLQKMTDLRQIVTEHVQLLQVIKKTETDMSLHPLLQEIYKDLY
Procedure: PPARγ Activation Activity
The agonistic activity of the compounds of the invention on PPARγ was measured based on the transfection assay using COST cells (DS Pharma Biomedical Co., Ltd., Osaka, Japan), which are the cell line derived from the kidney of the African green monkey. COST cells were cultured under 5% CO2 concentration, and DMEM medium containing 10% fetal bovine serum, glutamic acid, and antibiotics was used as a medium.
As an expression vector, a chimera in which DNA binding domain of Ga14, which is a yeast transcription factor, and ligand binding domain of human PPARγ2 are fused, i.e., a fused product between the amino acids 1 to 147 of Gal4 transcription factor and the amino acids 182 to 505 of human PPARγ2, was used. Furthermore, as a reporter vector, a firefly luciferase containing five copies of Gal4 recognition sequence in the promoter region was used. Plasmid transfection to the cells was performed according to a method which uses jetPEI (trade name, manufactured by Funakoshi Co., Ltd., Tokyo, Japan). Furthermore, β-galactosidase expression vector was employed as an internal standard.
After the transfection of the cells, the medium was replaced with a DMEM medium (containing 1% serum) added with the test compound, and the cells were further cultured for 16 hours. After that, the luciferase activity and β-galactosidase activity in the cell lysis solution were measured.
For the present test, dimethylsulfoxide (DMSO) was used for dissolution and dilution of the test compounds, and during the cell treatment, the DMSO concentration in DMEM medium (containing 1% serum) was adjusted to 0.1%. As a positive compound, rosiglitazone (trade name, manufactured by ALEXIS Corporation, Switzerland) was used. The percentage (%) of the luciferase activity of the each test compound (1 to 30 μmol/L) was calculated when the luciferase activity of rosiglitazone (3 to 10 μmol/L) is 100% and the luciferase activity in the absence of the test compound is 0%. The 50% effective concentration of the test compound (EC50, 50% effect concentration) was calculated by using SAS Preclinical Package Ver 5.0 (trade name, manufactured by SAS institute Japan Co., Tokyo, Japan), which is a statistical analysis program.

[1] = target: T2, angiotensin II type 1 receptor (Oryctolagus cuniculus, UniProt P34976); assay: Angiotensin II antagonistic activity in isolated rabbit blood vessels (angiotensin II-induced contraction of thoracic aorta ring); conditions: angiotensin II (10 nM)-induced contraction, compound 1 nmol/L to 10 μmol/L, 37° C., read-out: IC50 (50% inhibition concentration of angiotensin II-induced contraction)
T2 construct: By using a specimen of isolated rabbit blood vessels; from tissue; host or cells: rabbit thoracic aorta ring (New Zealand White, male)
T2 sequence (P34976 1-359): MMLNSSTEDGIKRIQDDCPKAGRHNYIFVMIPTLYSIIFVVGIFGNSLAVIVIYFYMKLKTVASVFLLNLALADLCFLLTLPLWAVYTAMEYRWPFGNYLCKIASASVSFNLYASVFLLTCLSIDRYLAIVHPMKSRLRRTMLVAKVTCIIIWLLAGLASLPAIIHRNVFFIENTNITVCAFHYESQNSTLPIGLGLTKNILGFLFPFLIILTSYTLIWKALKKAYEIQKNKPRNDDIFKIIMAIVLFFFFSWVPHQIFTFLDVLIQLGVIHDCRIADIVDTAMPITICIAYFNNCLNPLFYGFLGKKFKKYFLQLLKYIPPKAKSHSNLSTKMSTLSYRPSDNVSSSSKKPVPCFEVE
Excerpt: Angiotensin II Antagonistic Activity in Isolated Rabbit Blood Vessels
By using a specimen of isolated rabbit blood vessels, antagonistic activity of the compounds of the invention against angiotensin II type 1 receptor was estimated from a dose-response curve of angiotensin II-induced blood vessel contraction. Specifically, the specimen of thoracic aorta ring of a rabbit (New Zealand White: male, 2.4 to 3.0 kg) was suspended in a magnus bath filled with Krebs-Henseleite buffer (composition: 118 mM NaCl, 4.7 mM KCl, 2.55 mM CaCl2, 1.18 mM MgSO4, 1.18 mM KH2PO4, 24.88 mM NaHCO3, and 11.1 mM D-glucose), and angiotensin II (10 nM)-induced contraction was obtained in the presence of the compounds of each example (1 nmol/L to 10 μmol/L). During the measurement, the inside temperature of the magnus bath was maintained at 37° C. and the bath was continuously ventilated with a sufficient amount of mixed gas (95% O2 and 5% CO2). The angiotensin II-induced contraction was converted into a relative value (%) that is based on the angiotensin II (10 nM)—induced contraction in the absence of the compounds of each example. From the concentration-response curve obtained therefrom, 50% inhibition concentration (IC50 value) was calculated by using SAS Preclinical Package Ver 5.0 (trade name, manufactured by SAS institute Japan Co., Tokyo, Japan), which is a statistical analysis program.

| SMILES | EC50 (human PPARγ2) [nM] | IC50 [1] [nM] |
| --- | --- | --- |
| CCCCc1nc(C)nc(OC(C(=O)O)c2ccccc2)c1Cc1ccc(-c2ccccc2-c2noc(=O)[nH]2)cc1 (stereo not drawn) [Example 26, 2-{{6-butyl-2-methyl-5-{[2′-(5-oxo-4,5-dihydro-1,2,4-oxadiazol-3-yl)-[1,1-biphenyl]-4-yl]methyl}pyrimidin-4-yl}oxy}-2-phenylacetic acid] | 2920 | 380 |
| CCCCc1nc(C)nc(OCCOC)c1Cc1ccc(-c2ccccc2-c2noc(=O)[nH]2)cc1 [Example 33, 3-{4′-{[4-butyl-6-(2-methoxyethoxy)-2-methylpyrimidin-5-yl]methyl}-[1,1′-biphenyl]-2-yl}-1,2,4-oxadiazol-5(4H)-one] | 920 | 480 |
| CCCCc1nc(C)nc(OCC(=O)N2CCCCC2)c1Cc1ccc(-c2ccccc2-c2noc(=O)[nH]2)cc1 [Example 30] | 1210 | 230 |
| CCCCc1nc(C)nc(OC(Cc2ccccc2)C(=O)O)c1Cc1ccc(-c2ccccc2-c2noc(=O)[nH]2)cc1 (stereo not drawn) [Example 28, 2-{{6-butyl-2-methyl-5-{[2′-(5-oxo-4,5-dihydro-1,2,4-oxadiazol-3-yl)-[1,1′-biphenyl]-4-yl]methyl}pyrimidin-4-yl}oxy}-3-phenylpropionic acid] |  | 640 |
| CCCCc1nc(C)nc(OCCCC(=O)OCC)c1Cc1ccc(-c2ccccc2-c2noc(=O)[nH]2)cc1 [Example 6, ethyl 4-{{6-butyl-2-methyl-5-{[2′-(5-oxo-4,5-dihydro-1,2,4-oxadiazol-3-yl)-[1,1′-biphenyl]-4-yl]methyl}pyrimidin-4-yl}oxy}butanoate] | 870 | 130 |

The next lines start with the values.

| EC50 (human PPARγ2) [nM] | IC50 [1] [nM] | SMILES |
| --- | --- | --- |
| 1050 | 810 | CCCCc1nc(C)nc(OCC(=O)OCC)c1Cc1ccc(-c2ccccc2-c2noc(=O)[nH]2)cc1 [Example 1, ethyl 2-{{6-butyl-2-methyl-5-{[2′-(5-oxo-4,5-dihydro-1,2,4-oxadiazol-3-yl)-[1,1′-biphenyl]-4-yl]methyl}pyrimidin-4-yl}oxy}acetate] |
|  | 230 | CCCCc1nc(C)nc(OCC(=O)O)c1Cc1ccc(-c2ccccc2-c2noc(=O)[nH]2)cc1 [Example 2, 2-{{6-butyl-2-methyl-5-{[2′-(5-oxo-4,5-dihydro-1,2,4-oxadiazol-3-yl)-[1,1′-biphenyl]-4-yl]methyl}pyrimidin-4-yl}oxy}acetic acid] |
|  | 60 | CCCCc1nc(C)nc(OCC(=O)N(CC)CC)c1Cc1ccc(-c2ccccc2-c2noc(=O)[nH]2)cc1 [Example 5, 2-{{6-butyl-2-methyl-5-{[2′-(5-oxo-4,5-dihydro-1,2,4-oxadiazol-3-yl)-[1,1′-biphenyl]-4-yl]methyl}pyrimidin-4-yl}oxy}-N,N-diethylacetamide] |
|  | 290 | CCCCc1nc(C)nc(OCC(=O)NCC)c1Cc1ccc(-c2ccccc2-c2noc(=O)[nH]2)cc1 [Example 4, 2-{{6-butyl-2-methyl-5-{[2′-(5-oxo-4,5-dihydro-1,2,4-oxadiazol-3-yl)-[1,1′-biphenyl]-4-yl]methyl}pyrimidin-4-yl}oxy}-N-ethylacetamide] |
| 950 | 100 | CCCCc1nc(C)nc(OCC(C)=O)c1Cc1ccc(-c2ccccc2-c2noc(=O)[nH]2)cc1 [Example 22, 3-{4′-{[4-butyl-2-methyl-6-(2-oxopropoxy)pyrimidin-5-yl]methyl}-[1,1′-biphenyl]-2-yl}-1,2,4-oxadiazol-5(4H)-one] |
| 1320 | 770 | CCCCc1nc(C)nc(OCCO)c1Cc1ccc(-c2ccccc2-c2noc(=O)[nH]2)cc1 [Example 15, 3-{4′-{[4-butyl-6-(2-hydroxyethoxy)-2-methylpyrimidin-5-yl]methyl}-[1,1′-biphenyl]-2-yl}-1,2,4-oxadiazol-5(4H)-one] |
